This passage reports LC retention time results from the RepoRT retention time repository (doi:10.1016/j.chroma.2019.01.023).

What all share (settings): stereoisomer not certain
Data set [1] can be described thus: HILIC, Merck SeQuant ZIC-pHILIC, 150 × 2.1 mm, 5 µm, 40 °C, 0.3 mL/min, estimated dead time 1.1 min; A: acetonitrile; B: water + 2.8 mM ammonium formate, pH 9; gradient (min/%B) 0/5 1/5 10/51 13/51 13.1/5 20/5.
A short description of data set [2]: RP, Phenomenex Kinetex C18, 150 × 2.1 mm, 1.7 µm, 30 °C, 0.3 mL/min, estimated dead time 1.1 min; A: water + 0.1% formic acid, pH 3; B: acetonitrile + 0.1% formic acid, pH 3; gradient (min/%B) 0/2 14/100 17/100 17.1/2 25/2.
Assay in data set [3]: as above
This is another data set of the same source.

Data set [4] can be described thus: HILIC, Waters ACQUITY UPLC BEH Amide, 150 × 2.1 mm, 1.7 µm, 40 °C, 0.5 mL/min, estimated dead time 0.66 min; A: 5% water + 95% acetonitrile; B: 70% water + 30% acetonitrile + 10 mM ammonium formate, pH 6.5; gradient (min/%B) 0/0 2/0 20/70 23/70 24/0 31/0.

The structures appear in SMILES notation.

As to `Cc1cc2nc3c(=O)[nH]c(=O)nc-3n(CC(O)C(O)C(O)CO)c2cc1C` (stereo unspecified) [RIBOFLAVIN], the LC retention time in data set [1] is 5.9 min; in data set [2], 4.65 min; in data set [3], 4.85 min; in data set [4], 6.01 min.

With `CSCC[C@H](NC=O)C(=O)O` [N-FORMYL-L-METHIONINE], the LC retention time is 5.35 min in data set [1], 3.85 min in data set [2], 3.93 min in data set [3] and 2.24 min in data set [4].

In the case of `CC(=O)NC(CC(C)C)C(=O)O` (stereo unspecified) [N-ACETYLLEUCINE], the LC retention time in data set [1] is 3.02 min; in data set [2], 5.08 min; in data set [3], 5.25 min; in data set [4], 4.22 min.

As to `COc1ccc2[nH]cc(CCNC(C)=O)c2c1` [MELATONIN], the LC retention time in data set [1] was 1.36 min; in data set [2], 6.29 min; in data set [3], 6.37 min; in data set [4] it was 0.88 min.

Consider `CC(=O)NC(Cc1ccccc1)C(=O)O` (stereo unspecified) [N-ACETYLPHENYLALANINE], for which the LC retention time in data set [1] was 4.08 min; in data set [2], 5.54 min; in data set [3] it was 5.64 min; in data set [4], 2.48 min.

`CSCC1OC(n2cnc3c(N)ncnc32)C(O)C1O` (stereo unspecified) [METHYLTHIOADENOSINE]: the LC retention time in data set [1] was 3.94 min; in data set [2] it was 3.82 min; in data set [3], 4.07 min; in data set [4] it was 1.99 min.

Take `CSc1ncnc2nc[nH]c12` [THIOPURINE S-METHYLETHER]: the LC retention time in data set [1] was 2.09 min; in data set [2], 4.4 min; in data set [3] it was 4.64 min; in data set [4], 1.08 min.

As to `Cc1ncc(CO)c(CO)c1O` [PYRIDOXINE], the LC retention time is 3.69 min in data set [1], 1.65 min in data set [2], 1.81 min in data set [3] and 3.29 min in data set [4].

For the compound `O=c1[nH]c(=O)c2[nH]cnc2[nH]1` [XANTHINE], the LC retention time is 6.53 min in data set [1], 1.82 min in data set [2], 2.05 min in data set [3] and 4.97 min in data set [4].

As for `O=c1[nH]c(=O)c2ncn(C3OC(CO)C(O)C3O)c2[nH]1` (stereo unspecified) [XANTHOSINE], the LC retention time was 7.99 min in data set [1], 3.01 min in data set [2], 3.11 min in data set [3] and 7.17 min in data set [4].

Regarding `Nc1nc2c(ncn2C2OC(CO)C(O)C2O)c(=O)[nH]1` (stereo unspecified) [GUANOSINE], the LC retention time in data set [1] was 7.76 min; in data set [2], 2.67 min; in data set [3] it was 2.8 min; in data set [4], 7.3 min.

Take `Cn1c(=O)[nH]c2ncn(C)c2c1=O` [PARAXANTHINE]: the LC retention time in data set [1] is 2.16 min; in data set [2] it was 2.27 min; in data set [3], 4.04 min; in data set [4] it was 1.36 min.

Turning to `OCCc1c[nH]c2ccccc12` [INDOLE-3-ETHANOL], the LC retention time was 3.41 min in data set [1], 5.55 min in data set [2], 6.56 min in data set [3] and 0.83 min in data set [4].

As for `Cn1cnc2c(ncn2C2OC(CO)C(O)C2O)c1=N` (stereo unspecified) [1-METHYLADENOSINE], the LC retention time in data set [1] is 4.07 min; in data set [2], 3.16 min; in data set [3], 3.36 min; in data set [4], 2.82 min.

Consider `NC(=O)Cc1c[nH]c2ccccc12` [INDOLE-3-ACETAMIDE], for which the LC retention time was 2.09 min in data set [1], 5.26 min in data set [2], 5.42 min in data set [3] and 0.98 min in data set [4].

Regarding `CC12CCC(=O)C=C1CCC1C2C(O)CC2(C)C1CCC2(O)C(=O)CO` (stereo unspecified) [CORTISOL], the LC retention time is 1.43 min in data set [1], 7.09 min in data set [2], 7.18 min in data set [3] and 1 min in data set [4].

With `CC(=O)NC(Cc1c[nH]c2ccccc12)C(=O)O` (stereo unspecified) [N-ACETYLTRYPTOPHAN], the LC retention time in data set [1] was 5.66 min; in data set [2], 5.82 min; in data set [3], 5.91 min; in data set [4], 2.78 min.

Consider `O=C(O)CNC(=O)c1ccccc1` [HIPPURATE], for which the LC retention time in data set [1] was 5.32 min; in data set [2], 4.62 min; in data set [3], 4.78 min; in data set [4], 2.66 min.

For `O=C(O)Cc1c[nH]c2ccc(O)cc12` [5-HYDROXYINDOLEACETATE], the LC retention time was 5.86 min in data set [1], 4.49 min in data set [2], 4.69 min in data set [3] and 1.37 min in data set [4].

As for `Cn1c(=O)c2[nH]cnc2n(C)c1=O` [THEOPHYLLINE], the LC retention time in data set [1] was 1.98 min; in data set [2], 3.88 min; in data set [3], 4.07 min; in data set [4], 1.36 min.

As to `O=c1[nH]cnc2nc[nH]c12` [HYPOXANTHINE], the LC retention time in data set [1] was 6.25 min; in data set [2], 1.62 min; in data set [3], 1.76 min; in data set [4], 3.88 min.

With `N[C@@H](Cc1cc(I)c(Oc2ccc(O)cc2)c(I)c1)C(=O)O` [3,5-DIIODO-L-THYRONINE], the LC retention time is 6.36 min in data set [1], 6.44 min in data set [2], 6.51 min in data set [3] and 6.98 min in data set [4].

As for `O=C(O)c1ccnc2ccccc12` [4-QUINOLINECARBOXYLATE], the LC retention time was 5.08 min in data set [1], 2.29 min in data set [2], 2.5 min in data set [3] and 2.82 min in data set [4].

On to `O=c1[nH]cnc2c1ncn2C1OC(CO)C(O)C1O` (stereo unspecified) [INOSINE], for which the LC retention time in data set [1] was 6.86 min; in data set [2] it was 2.64 min; in data set [3] it was 2.79 min; in data set [4], 5.52 min.

On to `CC(C)(CO)C(O)C(=O)NCCC(=O)O` (stereo unspecified) [PANTOTHENATE], for which the LC retention time was 6.03 min in data set [1], 3.4 min in data set [2], 3.49 min in data set [3] and 3.31 min in data set [4].

Consider `NC(Cc1ccccc1)C(=O)O` (stereo unspecified) [PHENYLALANINE], for which the LC retention time is 7.04 min in data set [1], 3.13 min in data set [2], 3.18 min in data set [3] and 7.87 min in data set [4].

With `CC(=O)NCCc1c[nH]c2ccc(O)cc12` [N-ACETYLSEROTONIN], the LC retention time in data set [1] was 2.26 min; in data set [2], 4.58 min; in data set [3], 4.83 min; in data set [4], 1.02 min.

With `Nc1nc2c(ncn2C2CC(O)C(CO)O2)c(=O)[nH]1` (stereo unspecified) [DEOXYGUANOSINE], the LC retention time is 7.04 min in data set [1], 2.84 min in data set [2], 2.97 min in data set [3] and 6.48 min in data set [4].

Take `O=C(O)CCCCCCCC(=O)O` [AZELATE]: the LC retention time was 3.51 min in data set [1], 6.14 min in data set [2], 6.26 min in data set [3] and 1.24 min in data set [4].

Regarding `O=c1ccn(C2OC(CO)C(O)C2O)c(=O)[nH]1` (stereo unspecified) [URIDINE], the LC retention time in data set [1] is 6.2 min; in data set [2] it was 1.88 min; in data set [3], 2.06 min; in data set [4], 3.65 min.

As to `CC(=O)NCCCC(=O)[O-]` [4-ACETAMIDOBUTANOATE], the LC retention time in data set [1] is 5.1 min; in data set [2], 2.47 min; in data set [3], 2.62 min; in data set [4] it was 3.11 min.

On to `NC(Cc1ccc(O)cc1)C(=O)O` (stereo unspecified) [TYROSINE], for which the LC retention time in data set [1] is 8.2 min; in data set [2], 2 min; in data set [3] it was 2.11 min; in data set [4] it was 9 min.

Consider `Cc1cn(C2CC(O)C(CO)O2)c(=O)[nH]c1=O` (stereo unspecified) [THYMIDINE], for which the LC retention time in data set [1] is 3.56 min; in data set [2], 3.21 min; in data set [3] it was 3.34 min; in data set [4] it was 1.97 min.

As for `Cc1c[nH]c(=O)[nH]c1=O` [THYMINE], the LC retention time was 2.68 min in data set [1], 2.42 min in data set [2], 2.54 min in data set [3] and 1.6 min in data set [4].

With `NC(=O)c1ccccc1O` [SALICYLAMIDE], the LC retention time is 1.46 min in data set [1], 5.26 min in data set [2], 5.42 min in data set [3] and 0.81 min in data set [4].

Take `O=C(O)c1cc(=O)c2ccccc2[nH]1` [KYNURENATE]: the LC retention time in data set [1] was 5.56 min; in data set [2], 4.19 min; in data set [3] it was 4.34 min; in data set [4], 2.69 min.

`CC1OC(n2cnc3c(N)ncnc32)C(O)C1O` (stereo unspecified) [5'-DEOXYADENOSINE]: the LC retention time in data set [1] was 4.24 min; in data set [2], 3.11 min; in data set [3], 3.24 min; in data set [4], 2.4 min.

Consider `CC(=O)c1ccc(O)cc1O` [2',4'-DIHYDROXYACETOPHENONE], for which the LC retention time in data set [2] was 6.35 min; in data set [3], 6.45 min; in data set [4], 0.96 min.
